{"source": "patent US10815274B2", "about": "“Immunogenic WT-1 peptides and methods of use thereof” (Memorial Sloan Kettering Cancer Center, priority 2012, dated 2020)", "settings_in_all_cases": "50:1 E:T", "key": {"[1]": {"system": "WT1+ allo APC with restricting HLA allele loaded with WT1 peptide", "test": "Cr51 release assay, cytotoxic CTL response vs peptide loaded allogeneic APC sharing restricting HLA allele (HLA restriction)"}, "[2]": {"system": "WT1 peptide loaded autologous APC", "test": "Cr51 release assay, cytotoxic CTL response vs peptide loaded autologous APC", "assay_type": "cell-based, human"}, "[3]": {"system": "WT1- allo APC with restricting HLA allele", "test": "Cr51 release assay, cytotoxic CTL response vs unloaded allogeneic APC sharing restricting HLA allele", "assay_type": "cell-based, human"}, "WT1- autologous APC": {"system": "WT1- autologous APC", "test": "Cr51 release assay, cytotoxic CTL response vs unmodified autologous APC", "assay_type": "cell-based, human"}}, "note": "Where a SMILES comes first, the peptide text is derived from it.", "data": [{"compound": "CC(C)[C@H](NC(=O)[C@@H](NC(=O)[C@H](CO)NC(=O)[C@H](Cc1ccc(O)cc1)NC(=O)CNC(=O)[C@H](CCC(N)=O)NC(=O)[C@@H](N)CC(N)=O)[C@@H](C)O)C(=O)N[C@H](C(=O)N[C@@H](Cc1ccccc1)C(=O)O)[C@@H](C)O", "note": "[SEQ ID NO: 163] (H-NQGYSTVTF-OH; N-terminus and C-terminus assumed)", "values": [{"measurement": "Cytotoxic CTL response, % vs WT1+ allo APC with restricting HLA allele loaded with WT1 peptide", "setting": "[1]; HLA allele A0101", "value": 15, "unit": "%"}, {"measurement": "Cytotoxic CTL response, % vs WT1 peptide loaded autologous APC", "setting": "[2]; HLA allele A0101", "value": 19, "unit": "%"}, {"measurement": "Cytotoxic CTL response, % vs WT1- allo APC with restricting HLA allele", "setting": "[3]; HLA allele A0101", "value": 4, "unit": "%"}, {"measurement": "Cytotoxic CTL response, % vs WT1- autologous APC", "setting": "WT1- autologous APC; HLA allele A0101", "value": 2, "unit": "%"}]}, {"compound": "C[C@H](NC(=O)[C@H](C)NC(=O)[C@H](Cc1c[nH]cn1)NC(=O)[C@@H](N)Cc1c[nH]cn1)C(=O)N[C@@H](CCC(N)=O)C(=O)N[C@@H](Cc1ccccc1)C(=O)N1CCC[C@H]1C(=O)N[C@@H](CC(N)=O)C(=O)N[C@@H](Cc1c[nH]cn1)C(=O)O", "note": "[SEQ ID NO: 164] (H-HHAAQFPNH-OH; N-terminus and C-terminus assumed)", "values": [{"measurement": "Cytotoxic CTL response, % vs WT1+ allo APC with restricting HLA allele loaded with WT1 peptide", "setting": "[1]; HLA allele B3801", "value": 17, "unit": "%"}, {"measurement": "Cytotoxic CTL response, % vs WT1 peptide loaded autologous APC", "setting": "[2]; HLA allele B3801", "value": 26, "unit": "%"}, {"measurement": "Cytotoxic CTL response, % vs WT1- allo APC with restricting HLA allele", "setting": "[3]; HLA allele B3801", "value": 1, "unit": "%"}, {"measurement": "Cytotoxic CTL response, % vs WT1- autologous APC", "setting": "WT1- autologous APC; HLA allele B3801", "value": 0, "unit": "%"}]}, {"compound": "C[C@@H](O)[C@H](NC(=O)[C@H](CS)NC(=O)[C@H](CO)NC(=O)[C@H](CC(=O)O)NC(=O)[C@@H](NC(=O)[C@@H]1CCCN1C(=O)[C@@H](NC(=O)[C@H](Cc1c[nH]cn1)NC(=O)[C@@H](N)CS)[C@@H](C)O)[C@@H](C)O)C(=O)O", "note": "[SEQ ID NO: 166] (H-CHTPTDSCT-OH)", "values": [{"measurement": "Cytotoxic CTL response, % vs WT1+ allo APC with restricting HLA allele loaded with WT1 peptide", "setting": "[1]; HLA allele B4402", "value": 19, "unit": "%"}, {"measurement": "Cytotoxic CTL response, % vs WT1 peptide loaded autologous APC", "setting": "[2]; HLA allele B4402", "value": 37, "unit": "%"}, {"measurement": "Cytotoxic CTL response, % vs WT1- allo APC with restricting HLA allele", "setting": "[3]; HLA allele B4402", "value": 7, "unit": "%"}, {"measurement": "Cytotoxic CTL response, % vs WT1- autologous APC", "setting": "WT1- autologous APC; HLA allele B4402", "value": 8, "unit": "%"}]}, {"compound": "CC(C)C[C@H](NC(=O)[C@@H](NC(=O)[C@H](C)NC(=O)CNC(=O)[C@@H](N)CC(C)C)[C@@H](C)O)C(=O)N[C@@H](CCCCN)C(=O)NCC(=O)N[C@H](C(=O)N[C@@H](C)C(=O)N[C@@H](C)C(=O)O)C(C)C", "note": "[SEQ ID NO: 176] (H-LGATLKGVAA-OH; N-terminus and C-terminus assumed)", "values": [{"measurement": "Cytotoxic CTL response, % vs WT1+ allo APC with restricting HLA allele loaded with WT1 peptide", "setting": "[1]; HLA allele A0203", "value": 21, "unit": "%"}, {"measurement": "Cytotoxic CTL response, % vs WT1 peptide loaded autologous APC", "setting": "[2]; HLA allele A0203", "value": 35, "unit": "%"}, {"measurement": "Cytotoxic CTL response, % vs WT1- allo APC with restricting HLA allele", "setting": "[3]; HLA allele A0203", "value": 0, "unit": "%"}, {"measurement": "Cytotoxic CTL response, % vs WT1- autologous APC", "setting": "WT1- autologous APC; HLA allele A0203", "value": 0, "unit": "%"}]}, {"compound": "CC(C)C[C@H](NC(=O)[C@@H](N)[C@@H](C)O)C(=O)NCC(=O)N[C@H](C(=O)N[C@@H](C)C(=O)N[C@@H](C)C(=O)NCC(=O)N[C@@H](CO)C(=O)O)C(C)C", "note": "[SEQ ID NO: 177] (H-TLGVAAGS-OH; N-terminus and C-terminus assumed)", "values": [{"measurement": "Cytotoxic CTL response, % vs WT1+ allo APC with restricting HLA allele loaded with WT1 peptide", "setting": "[1]; HLA allele A6901", "value": 57, "unit": "%"}, {"measurement": "Cytotoxic CTL response, % vs WT1 peptide loaded autologous APC", "setting": "[2]; HLA allele A6901", "value": 80, "unit": "%"}, {"measurement": "Cytotoxic CTL response, % vs WT1- allo APC with restricting HLA allele", "setting": "[3]; HLA allele A6901", "value": 0, "unit": "%"}, {"measurement": "Cytotoxic CTL response, % vs WT1- autologous APC", "setting": "WT1- autologous APC; HLA allele A6901", "value": 4, "unit": "%"}]}, {"compound": "CC(C)C[C@H](NC(=O)[C@H](Cc1c[nH]cn1)NC(=O)[C@H](CC(=O)O)NC(=O)[C@H](CO)NC(=O)[C@H](CCCNC(=N)N)NC(=O)[C@H](CO)NC(=O)[C@H](Cc1ccccc1)NC(=O)[C@H](CCCCN)NC(=O)[C@@H](N)CCCNC(=N)N)C(=O)O", "note": "[SEQ ID NO: 181] (H-RKFSRSDHL-OH; N-terminus and C-terminus assumed)", "values": [{"measurement": "Cytotoxic CTL response, % vs WT1+ allo APC with restricting HLA allele loaded with WT1 peptide", "setting": "[1]; HLA allele A0201", "value": 27, "unit": "%"}, {"measurement": "Cytotoxic CTL response, % vs WT1 peptide loaded autologous APC", "setting": "[2]; HLA allele A0201", "value": 40, "unit": "%"}, {"measurement": "Cytotoxic CTL response, % vs WT1- allo APC with restricting HLA allele", "setting": "[3]; HLA allele A0201", "value": 1, "unit": "%"}, {"measurement": "Cytotoxic CTL response, % vs WT1- autologous APC", "setting": "WT1- autologous APC; HLA allele A0201", "value": 3, "unit": "%"}]}]}
